Patent US20250073240A1, “NEW TREATMENT” (Verona Pharma PLC, priority 2023, published 2025)

How the values were obtained:
Type in all cases: in vivo, human
[1] = tested on: patients with moderate to severe COPD; assay: Phase 3 clinical study (Example 1): moderate/severe COPD exacerbations, by blood eosinophil count
Method: (§1) A clinical study was conducted to determine the efficacy of ensifentrine in treating COPD compared with placebo. Ensifentrine was administered by nebuliser at a dose of 3 mg twice daily (BID) for 24 weeks. The study was a multi-centre, randomized, double-blind, parallel-group, placebo-controlled trial with around 800 patients and 5:3 randomization.
(§2) The study population included patients aged 40-80 years with moderate to severe COPD (FEV1 30%-70% p.n., FEV1/forced vital capacity (FVC) ratio <0.7, with mMRC≥2). The randomization stratified (a) the use of stable background maintenance LAMA or LABA therapy use (approx. 50%. yes or no) and (b) cigarette smoking (current or former). Inhaled corticosteroid (ICS) maintenance therapy was permitted in up to 20% of patients under certain provisions.
(§3) The primary endpoint of the study was change from baseline in average FEV1 area under the curve (AUC)0-12 h post-dose at week 12. Secondary endpoints of the study included: frequency of moderate/severe COPD exacerbations over 24 Weeks; time to first moderate/severe COPD exacerbation; and effect of blood eosinophil count of patients.
Exacerbations were defined as worsening of 2 or more major symptoms (dyspnea, sputum volume, and sputum purulence) or worsening of any 1 major symptom together with any 1 of the following minor symptoms: sore throat, colds, fever without other cause, and increased cough or wheeze for at least 2 consecutive days. COPD exacerbations were considered to be of moderate severity if treatment with systemic corticosteroids and/or antibiotics was required and were considered to be severe if hospitalization was required.
The blood eosinophil count of patients was determined as follows. • A blood sample (2 mL) was collected in 2 mL EDTA tube and mixed immediately using gentle inversion 8-10 times. • Eosinophils were tested as part of the Complete Blood Count (CBC) test panel and are part of the White Blood Cell (WBC) differential. • Testing was performed on the Beckman Coulter DxH 800, with testing performed daily on ambient samples. • The haematology parameters that constitute the CBC panel were produced using methods and technologies within the DxH800, including Coulter principle and VCSn laser flow cell technology. • The WBC differential was obtained using VCSn technology (Volume, Conductivity and Scatter) based on simultaneous measuring of cell volume, high frequency conductivity and laser light scatter. This produced an automated WBC differential. • During analysis, if any parameter was abnormal or outside established limits the instrument flagged this as abnormal and produced a stained blood slide. • Blood film review was completed using manual microscopy and a technician confirmed any abnormal findings. • The technician could have also provided a manual WBC differential during blood film review or confirm the automated WBC differential. • Finalised results were then provided.
(§4) The investigational product and placebo were provided in 2.5 mL unit dose format in an ampule and administered via a nebuliser.

[2] = tested on: patients with moderate to severe COPD; assay: Phase 3 clinical study (Example 1): lung function, average FEV1 AUC0-12h
Method: as §1, §2, §3
Baseline FEV1 is the mean of the two measurements taken before study medication on the day of first dosing, i.e. <40 minutes and just prior to dosing, both pre-dose on day 1.
Average FEV1 AUC0-12 h is defined as area under the curve over 12 hours of the FEV1, divided by 12 hours.
as §4

[3] = tested on: patients with moderate to severe COPD; assay: Phase 3 clinical study (Example 1): safety assessment, risk of pneumonia; details: patients with blood eosinophil count <300 cells/μL
Method: as §1, §2

[4] = tested on: patients with symptomatic, moderate-to-severe COPD; assay: Pooled analysis of two phase 3 trials (Example 2): moderate/severe exacerbation rate and time to first exacerbation
[5] = Blood eosinophils > 150 cells/μL (n = 445)
[6] = Blood eosinophils ≤ 150 cells/μL (n = 343)
[7] = Blood eosinophils < 100 cells/μL (n = 10)
[8] = Blood eosinophils ≥ 100 cells/μL (n = 74)

Which results are given for `COc1cc2c(cc1OC)-c1c/c(=N\c3c(C)cc(C)cc3C)n(CCNC(N)=O)c(=O)n1CC2` [Ensifentrine, N-(2-{(2E)-9,10-dimethoxy-4-oxo-2-[(2,4,6-trimethylphenyl)imino]-6,7-dihydro-2H-pyrimido[6,1-a]isoquinolin-3(4H)-yl}ethyl)urea]?
Exacerbation Rate Reduction [1, 5]: 43%; Rate Ratio (95% Confidence Interval), COPD exacerbations [1, 5]: 0.57 (0.34, 0.97); Exacerbation Rate Reduction [1, 6]: 42%; Rate Ratio (95% Confidence Interval), COPD exacerbations [1, 6]: 0.58 (0.30, 1.14); reduction in relative risk of moderate or severe COPD exacerbation vs placebo ([1]; all patients, 3 mg BID, 24 weeks): approximately 40%; reduction in relative risk of moderate or severe COPD exacerbation vs placebo ([1]; subgroup blood eosinophil count <150 cells/μL): around 40%; reduction in relative risk of moderate or severe COPD exacerbation vs placebo ([1]; subgroup blood eosinophil count <300 cells/μL): around 50%; Average FEV1 (AUC)0-12 h post-dose at Week 12: Change from Baseline, CFB Least Squares Mean (95% CI) ([2]; 3 mg BID by nebuliser, week 12, n = 498): 48.2 (30.0, 66.5) mL; Average FEV1 (AUC)0-12 h post-dose at Week 12: Placebo-corrected CFB LS Mean Diff (95% CI) ([2]; 3 mg BID by nebuliser, week 12, vs placebo): 93.9 (64.5, 123.3) mL; improvement in lung function ([2]; all subgroups, 3 mg BID): statistically significant; risk of pneumonia [3]: no significant increase; Hazard Ratio (95% Confidence Interval), time to first moderate/severe exacerbation [4, 7]: 0.52 (0.22, 1.24); Rate Ratio (95% Confidence Interval), moderate/severe exacerbation [4, 7]: 0.50 (0.22, 1.17); Hazard Ratio (95% Confidence Interval), time to first moderate/severe exacerbation ([4]; Blood eosinophils < 300 cells/μL (n = 60)): 0.53 (0.37, 0.76); Rate Ratio (95% Confidence Interval), moderate/severe exacerbation ([4]; Blood eosinophils < 300 cells/μL (n = 65)): 0.53 (0.37, 0.75); Hazard Ratio (95% Confidence Interval), time to first moderate/severe exacerbation [4, 8]: 0.60 (0.43, 0.83); Rate Ratio (95% Confidence Interval), moderate/severe exacerbation [4, 8]: 0.60 (0.43, 0.84); Hazard Ratio (95% Confidence Interval), time to first moderate/severe exacerbation ([4]; Blood eosinophils ≥ 300 cells/μL (n = 24)): 0.79 (0.43, 1.45); Rate Ratio (95% Confidence Interval), moderate/severe exacerbation ([4]; Blood eosinophils ≥ 300 cells/μL (n = 29)): 0.82 (0.45, 1.51); reduction in exacerbation rate ([4]; blood eosinophil counts <100 cells/μL): about 50%; reduction in exacerbation rate ([4]; blood eosinophil counts ≤300 cells/μL): about 47%; number needed to treat (NNT) for the prevention of 1 exacerbation annually ([4]; pooled population): 6.25 patients; reduction in the moderate/severe exacerbation rate compared with placebo ([4]; pooled population, 3 mg BID over 24 weeks): 41%; reduction in risk (Cox proportional hazards model), time to first moderate/severe exacerbation ([4]; pooled population, 24 weeks): 41%; rate ratio, moderate/severe exacerbation rate ([4]; pooled population, 24 weeks, 95% CI 0.43-0.80): 0.59; hazard ratio, time to first moderate/severe exacerbation ([4]; pooled population, 24 weeks, 95% CI 0.44-0.81): 0.59; time to first moderate/severe exacerbation compared with placebo ([4]; pooled population, over 24 weeks, log rank test P=0.001): significantly delayed; transition from lower to higher exacerbation risk (group B to group E) compared with placebo ([4]; post hoc analysis, 24 weeks): numerically delayed
